In ChEMBL document CHEMBL1147888, “Convenient one pot synthesis and antimicrobial evaluation of some new Mannich bases carrying 4-methylthiobenzyl moiety” (2007) one finds zone of inhibition and MIC data, which are given here for four compounds.

Values after ≈ are worked out from the molar mass of the structure shown.

What all share (assay type): functional
Assay [1] has as its system Escherichia coli. Briefly: Antibacterial activity against Escherichia coli ATCC 25922 after 24 hrs at 10 ug/ml by disc diffusion method. The following applies: ATCC 25922, 24 h, read-out: IZ. On the technique in general: Agar diffusion results depend on both activity and mobility in agar.
Assay [2] relates to Pseudomonas aeruginosa. Kind of assay: Antibacterial activity against Pseudomonas aeruginosa ATCC 27853 at 10 ug/ml after 24 hrs by disc diffusion method. The following applies: ATCC 27853, 24 h, read-out: IZ.
The test system of assay [3] is Escherichia coli. Kind of assay: Antibacterial activity against Escherichia coli ATCC 25922 after 24 hrs by disc diffusion method. The conditions noted are these: ATCC 25922, 24 h.
Assay [4] deals with Candida albicans. Kind of assay: Antifungal activity against Candida albicans NICM3100 at 10 ug/ml after 3 to 4 days by serial dilution method. The conditions noted are these: read-out: IZ.
The subject of assay [5] is Pseudomonas aeruginosa. Kind of assay: Antibacterial activity against Pseudomonas aeruginosa ATCC 27853 after 24 hrs by disc diffusion method. The following applies: ATCC 27853, 24 h.
The test system of assay [6] is Klebsiella pneumoniae. Briefly: Antibacterial activity against Klebsiella pneumoniae after 24 hrs by disc diffusion method.
In assay [7] the test system is Aspergillus flavus. Kind of assay: Antifungal activity against Aspergillus flavus NICM524 after 3 to 4 days by serial dilution method.
Assay [8] deals with Aspergillus fumigatus. Briefly: Antifungal activity against Aspergillus fumigatus NICM902 at 10 ug/ml after 3 to 4 days by serial dilution method. The conditions noted are these: read-out: IZ.
The test system of assay [9] is Candida albicans. Briefly: Antifungal activity against Candida albicans NICM3100 after 3 to 4 days by serial dilution method.
Assay [10] concerns Aspergillus fumigatus. Briefly: Antifungal activity against Aspergillus fumigatus NICM902 after 3 to 4 days by serial dilution method.
The subject of assay [11] is Aspergillus flavus. Kind of assay: Antifungal activity against Aspergillus flavus NICM524 at 10 ug/ml after 3 to 4 days by serial dilution method. The conditions noted are these: read-out: IZ.
The test system of assay [12] is Staphylococcus aureus. Briefly: Antibacterial activity against Staphylococcus aureus ATCC 25923 after 24 hrs by disc diffusion method. The following applies: ATCC 25923, 24 h.
The test system of assay [13] is Staphylococcus aureus. Briefly: Antibacterial activity against Staphylococcus aureus ATCC 25923 at 10 ug/ml after 24 hrs by disc diffusion method. The following applies: ATCC 25923, 24 h, read-out: IZ.
Assay [14] relates to Klebsiella pneumoniae. Briefly: Antibacterial activity against Klebsiella pneumoniae after 24 hrs at 10 ug/ml by disc diffusion method. The following applies: read-out: IZ.
Assay [15] deals with Talaromyces marneffei. Kind of assay: Antifungal activity against Penicillium marneffei at 10 ug/ml after 3 to 4 days by serial dilution method. The conditions noted are these: read-out: IZ.
For assay [16], the system named is Talaromyces marneffei. Briefly: Antifungal activity against Penicillium marneffei after 3 to 4 days by serial dilution method.

For `CSc1ccc(Cc2nn(CN3CCOCC3)c(=S)n2/N=C/c2ccc(Cl)cc2Cl)cc1`, the zone of inhibition at 10 µg/mL amounted to 17 mm with Escherichia coli [1]; 23 mm in the assay with Pseudomonas aeruginosa [2]; 10 mm in the assay on Candida albicans [4]; 12 mm in the assay with Aspergillus fumigatus [8]; 10 mm in the assay with Aspergillus flavus [11]; 18 mm in the assay with Staphylococcus aureus [13]. Moreover, the zone of inhibition at 10 µg/mL came to 18 mm in the assay on Klebsiella pneumoniae [14] and 10 mm with Talaromyces marneffei [15]. Moreover, the MIC (usually the least concentration at which growth counts as inhibited) in the assay with Escherichia coli [3] worked out at 12.5 µg/mL (≈ 24.6 µM); in the assay on Pseudomonas aeruginosa [5] it was 6 µg/mL (≈ 11.8 µM); with Klebsiella pneumoniae [6] it was 6 µg/mL (≈ 11.8 µM); against Aspergillus flavus [7], 25 µg/mL (≈ 49.2 µM); against Candida albicans [9] it was 12.5 µg/mL (≈ 24.6 µM); in the assay with Aspergillus fumigatus [10], 12.5 µg/mL (≈ 24.6 µM). Besides, the MIC in the assay with Staphylococcus aureus [12] and against Talaromyces marneffei [16] was 12.5 µg/mL (≈ 24.6 µM) throughout.
Take `CSc1ccc(/C=N/n2c(Cc3ccc(SC)cc3)nn(CN3CCOCC3)c2=S)cc1`: the zone of inhibition at 10 µg/mL in the assay on Escherichia coli [1] was 12 mm; with Pseudomonas aeruginosa [2], 12 mm; in the assay on Candida albicans [4], 10 mm; with Aspergillus fumigatus [8], 12 mm; in the assay on Aspergillus flavus [11] it was 10 mm; in the assay with Staphylococcus aureus [13] it was 10 mm. In addition, the zone of inhibition at 10 µg/mL with Klebsiella pneumoniae [14] and in the assay with Talaromyces marneffei [15] was 12 mm in each case. Besides, the MIC is 25 µg/mL (≈ 51.5 µM) in the assay with Escherichia coli [3]; 12.5 µg/mL (≈ 25.7 µM) with Pseudomonas aeruginosa [5]; 12.5 µg/mL (≈ 25.7 µM) against Klebsiella pneumoniae [6]; 25 µg/mL (≈ 51.5 µM) against Aspergillus flavus [7]; 12.5 µg/mL (≈ 25.7 µM) in the assay on Candida albicans [9]; 12.5 µg/mL (≈ 25.7 µM) against Aspergillus fumigatus [10]. Besides, the MIC with Staphylococcus aureus [12] turned out to be 25 µg/mL (≈ 51.5 µM); against Talaromyces marneffei [16], 12.5 µg/mL (≈ 25.7 µM).
For the compound `COc1ccc(/C=N/n2c(Cc3ccc(SC)cc3)nn(CN3CCN(C)CC3)c2=S)cc1`, the zone of inhibition at 10 µg/mL in the assay on Escherichia coli [1] turned out to be 10 mm; in the assay on Pseudomonas aeruginosa [2], 10 mm; with Candida albicans [4] it was 10 mm; in the assay with Aspergillus fumigatus [8], 12 mm; in the assay on Aspergillus flavus [11], 12 mm; in the assay with Staphylococcus aureus [13] it was 10 mm. Also, the zone of inhibition at 10 µg/mL with Klebsiella pneumoniae [14] and in the assay on Talaromyces marneffei [15] was 10 mm throughout. Further, the minimum inhibitory concentration (MIC) was found to be 25 µg/mL (≈ 51.8 µM) against Escherichia coli [3]; 12.5 µg/mL (≈ 25.9 µM) in the assay with Pseudomonas aeruginosa [5]; 12.5 µg/mL (≈ 25.9 µM) in the assay with Klebsiella pneumoniae [6]; 25 µg/mL (≈ 51.8 µM) against Aspergillus flavus [7]; 12.5 µg/mL (≈ 25.9 µM) in the assay with Candida albicans [9]; 12.5 µg/mL (≈ 25.9 µM) with Aspergillus fumigatus [10]. Also, the values for the MIC in the assay on Staphylococcus aureus [12] and in the assay on Talaromyces marneffei [16] were 25 µg/mL (≈ 51.8 µM) and 12.5 µg/mL (≈ 25.9 µM), respectively.
In the case of `COc1ccc(/C=N/n2c(Cc3ccc(SC)cc3)nn(CN3CCOCC3)c2=S)cc1`, the zone of inhibition at 10 µg/mL in the assay with Escherichia coli [1] turned out to be 10 mm; in the assay with Pseudomonas aeruginosa [2], 12 mm; in the assay with Candida albicans [4] it was 10 mm; in the assay with Aspergillus fumigatus [8], 12 mm; with Aspergillus flavus [11], 12 mm; with Staphylococcus aureus [13] it was 12 mm. Besides, the zone of inhibition at 10 µg/mL is 10 mm in the assay with Klebsiella pneumoniae [14] and 12 mm in the assay with Talaromyces marneffei [15]. Further, the MIC was found to be 25 µg/mL (≈ 53.2 µM) against Escherichia coli [3]; 12.5 µg/mL (≈ 26.6 µM) in the assay with Pseudomonas aeruginosa [5]; 12.5 µg/mL (≈ 26.6 µM) against Klebsiella pneumoniae [6]; 25 µg/mL (≈ 53.2 µM) with Aspergillus flavus [7]; 12.5 µg/mL (≈ 26.6 µM) in the assay with Candida albicans [9]; 12.5 µg/mL (≈ 26.6 µM) against Aspergillus fumigatus [10]. Besides, the MIC against Staphylococcus aureus [12] turned out to be 25 µg/mL (≈ 53.2 µM); in the assay on Talaromyces marneffei [16] it was 12.5 µg/mL (≈ 26.6 µM).
